IC50 data for 15 compounds are collected here from patent US20260297081A1, “COMPOUNDS AND METHODS OF TREATING CANCERS” (Cullgen Inc., priority 2023, published 2026).

This assay concerns Calu-1 cells. Briefly: Anti-proliferation (viability) of NSCLC Calu-1 cells, 3 days (Table 7, FIG. 2B). It counts as cell-based. The following applies: Homo sapiens, 72 h; Calu-1 cells, 3 days, 10-point serial dilution; read-out: GI IC50 in Calu-1. How it is done:
To evaluate anti-proliferation activities of heterobifunctional compounds, NSCLC Calu-1 or ER+ breast cancer T47D cells were treated with selected heterobifunctional compounds following a 10-point serial dilution for 3 or 6 days, respectively.
To verify that heterobifunctional compound-mediated degradation is dependent on the binding to CDK4-cyclin D complex, a negative control compound, CPD-143, which is derived from active heterobifunctional compound CPD-10 was designed. CPD-143 bears the same DDB1 ligand and linker as CPD-10 but with a modified warhead to impair the binding of the control compound to CDK4.
For `CC(=O)c1c(C)c2cnc(Nc3ccc(N4CCN(C5CCN(C(=O)[C@H]6CC[C@H](Nc7cc(NC(C)C)ccc7C(=O)Nc7ccc(N(C)C)nn7)CC6)C5)CC4)cn3)nc2n(C2CCCC2)c1=O` (stereo partly drawn) [CPD-527, 2-((trans-4-(3-(4-(6-((6-acetyl-8-cyclopentyl-5-methyl-7-oxo-7,8-dihydropyrido[2,3-d]pyrimidin-2-yl)amino)pyridin-3-yl)piperazin-1-yl)pyrrolidine-1-carbonyl)cyclohexyl)amino)-N-(6-(dimethylamino)pyridazin-3-yl)-4-(isopropylamino)benzamide], the IC50 (commonly the concentration at which inhibition is half-maximal) is not above 10 nM.
Regarding `CC(=O)c1c(C)c2cnc(Nc3ccc(N4CCN(C5CCN(C(=O)CN6CC7(CC(Nc8nc(NC(C)C)ccc8C(=O)Nc8ccc(N(C)C)nn8)C7)C6)C5)CC4)cn3)nc2n(C2CCCC2)c1=O` (stereo not drawn) [CPD-518, 2-((2-(2-(3-(4-(6-((6-acetyl-8-cyclopentyl-5-methyl-7-oxo-7,8-dihydropyrido[2,3-d]pyrimidin-2-yl)amino)pyridin-3-yl)piperazin-1-yl)pyrrolidin-1-yl)-2-oxoethyl)-2-azaspiro[3.3]heptan-6-yl)amino)-N-(6-(dimethylamino)pyridazin-3-yl)-6-(isopropylamino)nicotinamide], the IC50 was not above 10 nM.
Then `[2H]C([2H])([2H])Nc1ccc(C(=O)Nc2cc3n(n2)CCC3)c(NC2CC3(C2)CN(C(=O)CC(N2CCN(c4ccc(Nc5ncc6c(C)c(C(C)=O)c(=O)n(C7CCCC7)c6n5)nc4)CC2)C(F)(F)F)C3)n1` (stereo not drawn) [CPD-524, 2-((2-(3-(4-(6-((6-acetyl-8-cyclopentyl-5-methyl-7-oxo-7,8-dihydropyrido[2,3-d]pyrimidin-2-yl)amino)pyridin-3-yl)piperazin-1-yl)-4,4,4-trifluorobutanoyl)-2-azaspiro[3.3]heptan-6-yl)amino)-N-(5,6-dihydro-4H-pyrrolo[1,2-b]pyrazol-2-yl)-6-((methyl-d3)amino)nicotinamide], with not above 10 nM; and `CC(=O)c1c(C)c2cnc(Nc3ccc(CN4CCN(CC(=O)NC56CC(Nc7nc(NC(C)C)ccc7C(=O)Nc7ccc(N(C)C)nn7)(C5)C6)CC4)cn3)nc2n(C2CCCC2)c1=O` [CPD-502, 2-((3-(2-(4-((6-((6-acetyl-8-cyclopentyl-5-methyl-7-oxo-7,8-dihydropyrido[2,3-d]pyrimidin-2-yl)amino)pyridin-3-yl)methyl)piperazin-1-yl)acetamido)bicyclo[1.1.1]pentan-1-yl)amino)-N-(6-(dimethylamino)pyridazin-3-yl)-6-(isopropylamino)nicotinamide], with 10 to 50 nM; and `[2H]C([2H])([2H])Nc1ccc(C(=O)Nc2ccc(N(C)C)nn2)c(NC2CC3(C2)CN(CC(=O)N2CCC4(CCN(Cc5ccc(Nc6ncc7c(C)c(C(C)=O)c(=O)n(C8CCCC8)c7n6)nc5)C4)C2)C3)n1` (stereo not drawn) [CPD-507, 2-((2-(2-(7-((6-((6-acetyl-8-cyclopentyl-5-methyl-7-oxo-7,8-dihydropyrido[2,3-d]pyrimidin-2-yl)amino)pyridin-3-yl)methyl)-2,7-diazaspiro[4.4]nonan-2-yl)-2-oxoethyl)-2-azaspiro[3.3]heptan-6-yl)amino)-N-(6-(dimethylamino)pyridazin-3-yl)-6-((methyl-d3)amino)nicotinamide], with not below 50 nM.
Regarding `[2H]C([2H])([2H])Nc1ccc(C(=O)Nc2ccc(N(C)C)nn2)c(NC2CCN(C(=O)CN3CC4(C3)CN(c3ccc(Nc5ncc6c(C)c(C(C)=O)c(=O)n(C7CCCC7)c6n5)nc3)C4)CC2)n1` [CPD-490, 2-((1-(2-(6-(6-((6-acetyl-8-cyclopentyl-5-methyl-7-oxo-7,8-dihydropyrido[2,3-d]pyrimidin-2-yl)amino)pyridin-3-yl)-2,6-diazaspiro[3.3]heptan-2-yl)acetyl)piperidin-4-yl)amino)-N-(6-(dimethylamino)pyridazin-3-yl)-6-((methyl-d3)amino)nicotinamide], the IC50 was not below 50 nM.
Then `[2H]C([2H])([2H])Nc1ccc(C(=O)Nc2cc3n(n2)CCC3)c(N[C@H]2CC[C@H](C(=O)N3CCC(N4CCN(c5ccc(Nc6ncc7c(C)c(C(C)=O)c(=O)n(C8CCCC8)c7n6)nc5)CC4)C3)CC2)n1` (stereo partly drawn) [CPD-521, 2-((trans-4-(3-(4-(6-((6-acetyl-8-cyclopentyl-5-methyl-7-oxo-7,8-dihydropyrido[2,3-d]pyrimidin-2-yl)amino)pyridin-3-yl)piperazin-1-yl)pyrrolidine-1-carbonyl)cyclohexyl)amino)-N-(5,6-dihydro-4H-pyrrolo[1,2-b]pyrazol-2-yl)-6-((methyl-d3)amino)nicotinamide], with 10 to 50 nM; and `CC(=O)c1c(C)c2cnc(Nc3ccc(N4CCN(C5CCN(C(=O)NC6CCC(Nc7nc(NC(C)C)ccc7C(=O)Nc7ccc(N(C)C)nn7)CC6)C5)CC4)cn3)nc2n(C2CCCC2)c1=O` (stereo not drawn) [CPD-483, 2-((4-(3-(4-(6-((6-acetyl-8-cyclopentyl-5-methyl-7-oxo-7,8-dihydropyrido[2,3-d]pyrimidin-2-yl)amino)pyridin-3-yl)piperazin-1-yl)pyrrolidine-1-carboxamido)cyclohexyl)amino)-N-(6-(dimethylamino)pyridazin-3-yl)-6-(isopropylamino)nicotinamide], with not below 50 nM; and `CC(=O)c1c(C)c2cnc(Nc3ccc(CN4CC5(CN(CC(=O)N6CC7(CC(Nc8nc(NC(C)C)ccc8C(=O)Nc8ccc(N(C)C)nn8)C7)C6)C5)C4)cn3)nc2n(C2CCCC2)c1=O` [CPD-508, 2-((2-(2-(6-((6-((6-acetyl-8-cyclopentyl-5-methyl-7-oxo-7,8-dihydropyrido[2,3-d]pyrimidin-2-yl)amino)pyridin-3-yl)methyl)-2,6-diazaspiro[3.3]heptan-2-yl)acetyl)-2-azaspiro[3.3]heptan-6-yl)amino)-N-(6-(dimethylamino)pyridazin-3-yl)-6-(isopropylamino)nicotinamide], with not below 50 nM.
Consider `[2H]C([2H])([2H])Nc1ccc(C(=O)Nc2cccc(OC)n2)c(N[C@H]2CC[C@H](C(=O)N3CCC(N4CCN(c5ccc(Nc6ncc7c(C)c(C(C)=O)c(=O)n(C8CCCC8)c7n6)nc5)CC4)C3)CC2)n1` (stereo partly drawn) [CPD-523, 2-((trans-4-(3-(4-(6-((6-acetyl-8-cyclopentyl-5-methyl-7-oxo-7,8-dihydropyrido[2,3-d]pyrimidin-2-yl)amino)pyridin-3-yl)piperazin-1-yl)pyrrolidine-1-carbonyl)cyclohexyl)amino)-N-(6-methoxypyridin-2-yl)-6-((methyl-d3)amino)nicotinamide], for which the IC50 was not below 50 nM.
The value for `CC(=O)c1c(C)c2cnc(Nc3ccc(CN4CCN(CC(=O)NCC56CC(Nc7nc(NC(C)C)ccc7C(=O)Nc7ccc(N(C)C)nn7)(C5)C6)CC4)cn3)nc2n(C2CCCC2)c1=O` [CPD-479, 2-((3-((2-(4-((6-((6-acetyl-8-cyclopentyl-5-methyl-7-oxo-7,8-dihydropyrido[2,3-d]pyrimidin-2-yl)amino)pyridin-3-yl)methyl)piperazin-1-yl)acetamido)methyl)bicyclo[1.1.1]pentan-1-yl)amino)-N-(6-(dimethylamino)pyridazin-3-yl)-6-(isopropylamino)nicotinamide] was not above 10 nM; that for `CC(=O)c1c(C)c2cnc(Nc3ccc(CN4CC5(CN(CC(=O)N6CCC(Nc7nc(NC(C)C)ccc7C(=O)Nc7ccc(N(C)C)nn7)CC6)C5)C4)cn3)nc2n(C2CCCC2)c1=O` [CPD-509, 2-((1-(2-(6-((6-((6-acetyl-8-cyclopentyl-5-methyl-7-oxo-7,8-dihydropyrido[2,3-d]pyrimidin-2-yl)amino)pyridin-3-yl)methyl)-2,6-diazaspiro[3.3]heptan-2-yl)acetyl)piperidin-4-yl)amino)-N-(6-(dimethylamino)pyridazin-3-yl)-6-(isopropylamino)nicotinamide] was not below 50 nM.
Then `CC(=O)c1c(C)c2cnc(Nc3ccc(N4CC5(CC(N(C)CC(=O)N6CCC(Nc7nc(NC(C)C)ccc7C(=O)Nc7ccc(N(C)C)nn7)CC6)C5)C4)cn3)nc2n(C2CCCC2)c1=O` [CPD-484, 2-((1-(N-(2-(6-((6-acetyl-8-cyclopentyl-5-methyl-7-oxo-7,8-dihydropyrido[2,3-d]pyrimidin-2-yl)amino)pyridin-3-yl)-2-azaspiro[3.3]heptan-6-yl)-N-methylglycyl)piperidin-4-yl)amino)-N-(6-(dimethylamino)pyridazin-3-yl)-6-(isopropylamino)nicotinamide], with 10 to 50 nM; and `CC(=O)c1c(C)c2cnc(Nc3ccc(N4CCN(CC(=O)NC5CC6(C5)CC(Nc5nc(NC(C)C)ccc5C(=O)Nc5cc(C)n(C(F)(F)F)n5)C6)CC4)cn3)nc2n(C2CCCC2)c1=O` (stereo not drawn) [CPD-514, 2-((6-(2-(4-(6-((6-acetyl-8-cyclopentyl-5-methyl-7-oxo-7,8-dihydropyrido[2,3-d]pyrimidin-2-yl)amino)pyridin-3-yl)piperazin-1-yl)acetamido)spiro[3.3]heptan-2-yl)amino)-6-(isopropylamino)-N-(5-methyl-1-(trifluoromethyl)-1H-pyrazol-3-yl)nicotinamide], with not below 50 nM; and `CC(=O)c1c(C)c2cnc(Nc3ccc(N4CCC5(CCN(CC(=O)NCC67CC(Nc8nc(NC(C)C)ccc8C(=O)Nc8ccc(N(C)C)nn8)(C6)C7)C5)C4)cn3)nc2n(C2CCCC2)c1=O` (stereo not drawn) [CPD-485, 2-((3-((2-(7-(6-((6-acetyl-8-cyclopentyl-5-methyl-7-oxo-7,8-dihydropyrido[2,3-d]pyrimidin-2-yl)amino)pyridin-3-yl)-2,7-diazaspiro[4.4]nonan-2-yl)acetamido)methyl)bicyclo[1.1.1]pentan-1-yl)amino)-N-(6-(dimethylamino)pyridazin-3-yl)-6-(isopropylamino)nicotinamide], with not above 10 nM.
